Laboratory results reported in paper PMC12080252, “Daphnia magna as an Alternative Model for (Simultaneous) Bioaccumulation and Chronic Toxicity Assessment—Controlled Exposure Study Indicates High Hazard of Heterocyclic PAHs” (Environmental Science & Technology, 2025).
Where “and” joins values, the source holds several entries; their conditions need not be identical. Equal entries are not always repeated. Where two headings read alike, the source gives them in different places.

Columns and labels:
[1] = Bioaccumulation test (growth, uptake, depuration; adapted from OECD 305) with passive dosing; type: in vivo, Daphnia magna; conditions: whole body (homogenate, wet weight); for concentration at 120 h: Daphnia magna, concentration in animal body at end of uptake phase (t = 120 h), read-out: Body burden
Procedure: (§1) Bioaccumulation tests with D. magna were adapted from OECD guideline 305 (for fish).[27] Each compound was tested using 110 animals: 10 for controls and 100 for chemical exposure. The animals, aged 10 days to limit growth dilution and provide sufficient tissue for analysis, were exposed to a single subtoxic concentration of each chemical. The test included three phases: (i) growth, (ii) uptake, and (iii) depuration. A combined chronic toxicity and bioaccumulation test was also conducted in a minimized version (section 2.6).
(§2) Ten days before exposure, 110 juvenile daphnids (<24 h old) were collected from the stock culture and grown in M4 medium. Due to the large number of animals required for this test, the volume of media and amount of food provided to the Daphnia were reduced for experimental feasibility. This was achieved by maintaining a denser population (20 mL medium/daphnid), as well as less food (D. subspicatus equivalent to 0.1 mg C/daphnid/day) compared to the stock culture yet still within the limits allowed by OECD 211. Other dietary supplements (fish food and spirulina) and physical conditions (temperature, light/dark cycle) were the same as the stock culture.
(§3) Before exposure started, 2 L of M4 medium containing D. subspicatus at a density sufficient for 100 daphnids for 5 days (25 mg C L^–1) was dosed with the test substance by shaking with 24 PDMS disks for 72 h. For controls (10 animals), 200 mL of M4 medium containing D. subspicatus ([…]) was equilibrated with 2 disks loaded with pure methanol. Immediately before the start of exposure phase, 10-day old daphnids were transferred to fresh medium for 1 h to clean their guts. Thereafter, 10 control daphnids were placed in 200 mL of pre-equilibrated clean medium with 2 clean PDMS disks, while 100 animals (treatment group) were divided into two beakers, each with 50 animals, 1 L of predosed exposure medium, and 12 loaded disks to begin the 5-day uptake phase.
(§4) Neonates were discarded daily, and animals were sampled at 24 h intervals over 120 h (5 time points, 2 replicates of 5 animals each). Sampled daphnids were transferred to clean medium for 15 min to remove chemicals present on animal surface, dried with lint-free tissue and weighed to determine wet weight. Finally, 5 animals of known mass were combined in each vial and stored at −20 °C until extraction. As passive dosing maintains constant concentrations,[1] medium samples for analysis (with and without biomass) were only taken at the end of the uptake phase.
(§5) 50 animals were first transferred to fresh medium for 15 min to remove exposure solution from their surface, and then placed in a new clean medium for the depuration phase. Animals were sampled at 4 time points (2 replicates of 5 animals each as in the uptake phase) over 69 to 96 h. After sampling, the remaining animals were transferred to fresh medium, and the old medium was collected for analysis. Control animals and their medium were analyzed at the end of both the uptake and depuration phases (5 animals each).
(§6) For quantification of body burdens, 5 daphnids were thawed, homogenized in 5 mL Milli-Q water (IKA T-25 digital Ultra-TURRAX) and extracted twice with 2 mL of hexane. The extracts were combined, dried with Na2SO4, concentrated under a nitrogen stream, and spiked with internal standard.
(§7) The depuration rate constant (k2) was derived by plotting the natural logarithm of CD against time ([h]), with the slope giving k2 (Figure S3).[27] The growth rate constant (kg) was determined from the slope of the regression line in the plot of ln (D. magna wet weight) versus time, and the growth-corrected depuration rate constant (k2g) was calculated using eq 4. [drawing 4] 4
(§8) From k2, the optimal uptake and depuration durations to reach 50% and 95% steady-state were estimated using eqs 5 and 6. [drawing 5] 5 [drawing 6] 6
(§9) The bioaccumulation factor (BAF*) was calculated, even though steady-state was not reached. […]

Daphnia magna = test: as above; type: in vivo; conditions: for log BAF*L5%: 5-day uptake, steady-state not reached, normalized to 5% lipid assuming 1.5% lipid in daphnids, eq 8; for effects on growth (wet weight) in bioaccumulation test: BCRB 21.6, BNF 4.5, BNT 4.3, DNF 0.1 μg L^–1, vs controls, p < 0.05; for log BCFL5% (BAF*L5%) / log k2 (growth-dilution corrected, k2g): Table S7, this study; for k2g (growth dilution corrected depuration rate constant): eq 4; for t95 (time to reach 95% steady-state): estimated from k2, eq 6; for k2 (depuration rate constant): slope of ln CD vs time
Procedure: as §1, §2, §3, §4, §5, §6, §7, §8, §9

D. magna = test: PNEC and risk quotient estimation; parameters: species or system Daphnia magna; conditions: environmental concentration of surrogate (CRB, DBF, DBT) / PNEC
Source text: To ensure a precautionary approach, an AF of 100 was applied, which accounts for interspecies variability and uncertainties in extrapolating laboratory findings to real-world conditions.
Environmental concentration (EC) data are obtained from A CRB, B DBF, and C DBT by choosing the highest
concentration that remains below the solubility limit of the respective NSO-PAH, as described in Reference 24.

[2] = Partitioning between methanolic loading solution and aqueous medium (passive dosing); type: physicochemical; conditions: methanolic loading solution vs M4 medium at equilibrium via PDMS disk
Procedure: Polydimethylsiloxane (PDMS) passive dosing disks, each weighing 2 g with a surface area of 19.6 cm^2, were prepared using SYLGARD 184 silicone elastomer kit and cleaned before use. Details of the procedure are given in Section S3 (SI file). PDMS disks were loaded in methanolic solution or suspension of the test compounds (10 mL solution/disk) with constant shaking for 72 h, wiped with a lint-free tissue, and washed with water for 30 min four times to remove methanol.
The time required to reach equilibrium between the PDMS disk and the aqueous medium was determined by conducting 72-h kinetic experiments. Chemicals were dosed into M4 medium in 250 mL Schott bottles (in triplicates) at a ratio of 1 disk/100 mL M4 medium using disks loaded with methanolic solution of a single test substance. For the controls, the disks were loaded with pure methanol. While shaking the bottles at room temperature, five samples were taken at different time points over 72 h and the equilibration time was determined.
Passive dosing enabled successful quantification of exposure concentrations after centrifugation of algal biomass (CW), closely matching freely dissolved concentrations (Cfree) calculated from partition coefficients between methanol and the medium (KMeOH:medium; see Figure S12 and section S6 for details).
Table S5 Partition coefficients between the methanolic loading solutions (CMeOH, t=0, nominal concentration
in methanol at t=0) and the measured equilibrium concentrations of the aqueous medium (Cmedium, eq).
Compound CMeOH, t=0 Measured KMeOH:medium log log KMeOH:medium Calculated
[mg L-1] Cmedium, eq KMeOH:medium (mean ± SD) Cmedium, eq
* The “calculated CMedium, eq” were reported using the average KMeoH:medium and CMeOH, t=0. […]

[3] = cited from earlier work; for SW (water solubility): measured in previous work; for log KOW: n-octanol-water partition coefficient; for log KOC: organic carbon-water partition coefficient
[4] = Table 1; EPA Comptox where available, otherwise EPISuite MPBPVP v1.43 prediction; cited from earlier work
[5] = Table S7, this study, read-out: half-life (converted)
[6] = t50 (time to reach 50% steady-state / depuration half-life), estimated from k2, eq 5

SMILES	concentration at 120 h [1] [ng/g]	half-life [1, 5] [h]	half-life [1, 6] [h]	log BAF*L5% (Daphnia magna)	effects on growth (wet weight) in bioaccumulation test (Daphnia magna)	log BCFL5% (BAF*L5%) (Daphnia magna)	log k2 (growth-dilution corrected, k2g) (Daphnia magna) [h-1]	k2g (growth dilution corrected depuration rate constant) (Daphnia magna) [h⁻¹]	t95 (time to reach 95% steady-state) (Daphnia magna) [h]	k2 (depuration rate constant) (Daphnia magna) [h⁻¹]	RQ (EC/PNEC) (D. magna)	log KMeOH:medium (mean ± SD) [2]	SW (water solubility) [3] [µg/mL]	log KOW [3]	log KOC [3]	VP (vapor pressure) [4]
c1ccc2c(c1)ccc1[nH]c3ccccc3c12 [BCRB, 7H-benzo[c]carbazole]	25600	6.23	6	3.60±0.09 L kg^-1 lipid	statistically significant effects on growth	3.6	-0.96	0.109	27	0.111	4000	4.12±0.06	0.80	5.22	4.84	4.43x10^-8 mm Hg
c1ccc2c(c1)ccc1sc3ccccc3c12 [BNT, benzo[b]naphtho[1,2-d]thiophene]	29400	16.5	17	4.36 L kg^-1 lipid and 4.36±0.43 L kg^-1 lipid	No inhibitory growth effects	4.36	-1.39	0.040	71	0.042	3333	5.46±0.12	0.026	5.75	5.50	8.97x10^-7 mm Hg
c1ccc2c(c1)ccc1oc3ccccc3c12 [BNF, benzo[b]naphtho[1,2-d]furan]	2580	27.7	28	3.28±0.31 L kg^-1 lipid	statistically significant effects on growth	3.28	-1.66	0.022	120	0.025	21111	5.26±0.06	0.25	5.6	4.98	3.36x10^-6 mm Hg
c1ccc2c(c1)ccc1oc3ccc4ccccc4c3c12 [DNF, dinaphtho[2,1-b:1′,2′-d]furan]	176	53.7	54	3.77 L kg^-1 lipid and 3.77±0.08 L kg^-1 lipid	No inhibitory growth effects	3.77	-1.98	0.0105	232	0.0129		5.98±0.14	0.0015	6.89	6.61	2.15x10^-8 mm Hg
